Test results published in patent US20240158446A1, “CYCLIC COMPOUND HAVING SELECTIVE INHIBITORY ACTION ON KRAS OVER HRAS AND NRAS” (CHUGAI SEIYAKU KABUSHIKI KAISHA, priority 2021, published 2024).
Read-outs that look alike come from different tables or passages of the source. Where a SMILES comes first, the peptide text is derived from it. Bridges are numbered along the chain shown (N, C = ends). [ ]: non-standard residue; d: D form. The star is where a group is joined. hPhe(3-Cl-4-CF3) = N[C@@H](CCc1ccc(C(F)(F)F)c(Cl)c1)C(=O)O; NPrPhe(4-CF3) = CCCN[C@@H](Cc1ccc(C(F)(F)F)cc1)C(=O)O; NMeGly(cPent) = CN[C@H](C(=O)O)C1CCCC1; NMeD = CN[C@@H](CC(=O)O)C(=O)O; NMeL = CN[C@@H](CC(C)C)C(=O)O; Morpholide = C1CN(*)CCO1; Ac5c = NC1(C(=O)O)CCCC1; Sar = CNCC(=O)O

Experiments:
[1] = system: human lung cancer strain NCI-H441; assay: cells; details: NCI-H441, 96 h, read-out: NCI-H441 IC50 (nM), NCI-H441 cell proliferation, 4 days, CellTiter-Glo;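 further: cell proliferation inhibition after four days measured by CellTiter-Glo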
[2] = target: GDP-bound KRAS wild-type protein (Homo sapiens, UniProt P01116); assay: Binding to KRAS by surface plasmon resonance (SPR), Single Cycle Kinetics; details: GDP-bound KRAS wild-type protein, read-out: KRAS KD
Sequence of GDP-bound KRAS wild-type protein (P01116 whole entry): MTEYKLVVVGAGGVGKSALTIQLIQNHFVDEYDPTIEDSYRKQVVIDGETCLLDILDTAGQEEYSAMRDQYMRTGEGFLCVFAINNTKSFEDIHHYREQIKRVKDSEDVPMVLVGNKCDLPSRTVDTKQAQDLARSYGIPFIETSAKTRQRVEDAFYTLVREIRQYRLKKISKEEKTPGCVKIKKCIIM

[3] = system: human lung cancer strain NCI-H441;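 further: cell proliferation inhibition after four days measured by CellTiter-Glo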
[4] = target: GDP-bound HRAS wild-type protein (Homo sapiens, UniProt P01112); assay: Binding to HRAS by surface plasmon resonance (SPR), Single Cycle Kinetics; details: for HRAS/KRAS (ratio of KD value for HRAS to KD value for KRAS): SPR, GDP-bound HRAS wild-type protein vs GDP-bound KRAS wild-type protein
Sequence of GDP-bound HRAS wild-type protein (P01112 whole entry): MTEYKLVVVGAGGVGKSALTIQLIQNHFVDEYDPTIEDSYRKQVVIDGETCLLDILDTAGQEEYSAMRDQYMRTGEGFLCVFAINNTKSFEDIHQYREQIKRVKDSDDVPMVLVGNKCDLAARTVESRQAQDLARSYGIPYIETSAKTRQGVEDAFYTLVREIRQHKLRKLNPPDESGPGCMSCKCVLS

[5] = target: GDP-bound NRAS wild-type protein (Homo sapiens, UniProt P01111); assay: Binding to NRAS by surface plasmon resonance (SPR), Single Cycle Kinetics; details: for NRAS/KRAS (ratio of KD value for NRAS to KD value for KRAS): SPR, GDP-bound NRAS wild-type protein vs GDP-bound KRAS wild-type protein
Sequence of GDP-bound NRAS wild-type protein (P01111 whole entry): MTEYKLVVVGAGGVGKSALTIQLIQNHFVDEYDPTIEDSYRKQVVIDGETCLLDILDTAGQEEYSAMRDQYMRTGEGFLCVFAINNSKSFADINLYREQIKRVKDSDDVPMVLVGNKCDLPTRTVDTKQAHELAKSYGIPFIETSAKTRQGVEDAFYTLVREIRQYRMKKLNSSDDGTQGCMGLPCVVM

[6] = SPR, Single Cycle Kinetics, 1:1 binding model
[7] = SPR Single Cycle Kinetics, 1:1 binding model

| SMILES | IC50 [1] | Kd [2, 6] | IC50 [3] | HRAS/KRAS (ratio of KD value for HRAS to KD value for KRAS) ([4]; KD ratio class) | NRAS/KRAS (ratio of KD value for NRAS to KD value for KRAS) ([5]; KD ratio class) | further results |
| --- | --- | --- | --- | --- | --- | --- |
| CCO[C@@H]1C[C@H]2C(=O)NC3(CCC3)C(=O)N(C)[C@@H](C3CCCC3)C(=O)N(C)[C@H](C(=O)N(C)CC)CC(=O)N(C)[C@@H](C(C)C)C(=O)N[C@@H]([C@@H](C)CC)C(=O)N(C)CC(=O)N(C)[C@H]3C/C=C\CCN(C3=O)[C@@H](Cc3ccc(C(F)(F)F)cc3)C(=O)N(C)CC(=O)N[C@@H](CCc3ccc(C(F)(F)F)c(OC)c3)C(=O)N2C1 [PP2019] | 4.5 nM |  |  |  |  |  |
| CC[C@H](C)[C@@H]1NC(=O)[C@H](CC2CC2)N(C)C(=O)C[C@@H](C(=O)N(C)CC)N(C)C(=O)[C@H](C2CCCC2)N(C)C(=O)C2(CCC2)NC(=O)[C@@H]2C[C@H](C)CN2C(=O)[C@H](CCc2ccc(C(F)(F)F)c(OC)c2)NC(=O)CN(C)C(=O)[C@H](Cc2ccc(C)cc2)N2CC/C=C\C[C@@H](C2=O)N(C)C(=O)CN(C)C1=O [PP1897] | 22.6 nM |  |  |  |  |  |
| CC[C@H](C)[C@@H]1NC(=O)[C@H](CC)N(C)C(=O)C[C@@H](C(=O)N(C)CC)N(C)C(=O)[C@H](C2CCCC2)N(C)C(=O)C2(CC(C)(C)C2)NC(=O)[C@@H]2C[C@@H](C)CN2C(=O)[C@H](CCc2cc(F)c(C(F)(F)F)c(F)c2)NC(=O)CN(C)C(=O)[C@H](Cc2ccc(C)cc2)N2CC/C=C\C[C@@H](C2=O)N(C)C(=O)CN(C)C1=O [PP1884] | 17.3 nM |  |  |  |  |  |
| CC[C@H](C)[C@@H]1NC(=O)[C@H](CC)N(C)C(=O)C[C@@H](C(=O)N(C)CC)N(C)C(=O)[C@H](C2CCCC2)N(C)C(=O)C2(CCC2)NC(=O)[C@@H]2C[C@H](C)CN2C(=O)[C@H](CCc2ccc(C(F)(F)F)c(OC)c2)NC(=O)CN(C)C(=O)[C@H](Cc2ccc(C)cc2)N2CC/C=C\C[C@@H](C2=O)N(C)C(=O)CN(C)C1=O [PP1853] | 30.4 nM |  |  |  |  |  |
| CCCOC[C@H]1C(=O)N[C@@H]([C@@H](C)CC)C(=O)N(C)CC(=O)N(C)[C@H]2C/C=C\CCN(C2=O)[C@@H](Cc2ccc(C(F)(F)F)cc2)C(=O)N(C)CC(=O)N[C@@H](CCc2cc(F)c(C(F)(F)F)c(F)c2)C(=O)N2C[C@H](OCC)C[C@H]2C(=O)NC2(CCCC2)C(=O)N(C)[C@@H](C2CCCC2)C(=O)N(C)[C@H](C(=O)N2CCCC2)CC(=O)N1C [PP1399] |  | 0.19 nM | 18.8 nM | A (a compound having 10 or more and less than 20 is denoted as A) | A (a compound having 10 or more and less than 20 is denoted as A) |  |
| CCCCCC[C@H]1C(=O)N[C@@H]([C@@H](C)CC)C(=O)N(C)CC(=O)N(C)[C@H]2C/C=C\CCN(C2=O)[C@@H](Cc2ccc(C(F)(F)F)cc2)C(=O)N(C)CC(=O)N[C@@H](CCc2cc(F)c(C(F)(F)F)c(F)c2)C(=O)N2C[C@H](OCC)C[C@H]2C(=O)NC2(CCC2)C(=O)N(C)[C@@H](C2CCCC2)C(=O)N(C)[C@H](C(=O)N(C)C)CC(=O)N1C [PP1242, (2S,8S,12R,14S,20S,23S,27S,30S,36S,38Z)-20-cyclopentyl-8-[2-[3,5-difluoro-4-(trifluoromethyl)phenyl]ethyl]-12-ethoxy-27-hexyl-N,N,4,19,22,26,32,35-octamethyl-30-[(1S)-1-methylpropyl]-3,6,9,15,18,21,25,28,31,34,42-undecaoxo-2-[[4-(trifluoromethyl)phenyl]methyl]spiro[1,4,7,10,16,19,22,26,29,32,35-undecazatricyclo[34.5.1.0^10,14]dotetracont-38-ene-17,1′-cyclobutane]-23-carboxamide] |  | 0.076 nM | 12.8 nM | A (a compound having 10 or more and less than 20 is denoted as A) | A (a compound having 10 or more and less than 20 is denoted as A) |  |
| CCCN1C(=O)CN(C)C(=O)CN(C)C(=O)[C@H]([C@@H](C)CC)NC(=O)[C@H](CC(C)C)N(C)C(=O)C[C@@H](C(=O)N2CCOCC2)N(C)C(=O)[C@H](C2CCCC2)N(C)C(=O)C2(CCCC2)NC(=O)CN(C)C(=O)[C@H](CCc2ccc(C(F)(F)F)c(Cl)c2)NC(=O)CN(C)C(=O)[C@@H]1Cc1ccc(C(F)(F)F)cc1 [PP0266] ([NMeL]I[Sar][Sar][NPrPhe(4-CF3)][Sar][hPhe(3-Cl-4-CF3)][Sar][Ac5c][NMeGly(cPent)][NMeD]-Morpholide; lactam N-11) |  |  | 15.2 nM |  |  | Kd [2, 7]: 0.2 nM; HRAS/KRAS (ratio of KD value for HRAS to KD value for KRAS) [4]: C (A compound having a KD ratio of 0.1 or more and less than 3 is denoted as C); NRAS/KRAS (ratio of KD value for NRAS to KD value for KRAS) [5]: B (a compound having 3 or more and less than 10 is denoted as B) |
| CCO[C@@H]1C[C@H]2C(=O)NC3(CCC3)C(=O)N(C)[C@@H](C3CCCC3)C(=O)N(C)[C@H](C(=O)N(C)C)CC(=O)N(C)[C@@H](CC(C)C)C(=O)N[C@@H]([C@@H](C)CC)C(=O)N(C)CC(=O)N(C)[C@H]3C/C=C\CCN(C3=O)[C@@H](Cc3ccc(C(F)(F)F)cc3)C(=O)N(C)CC(=O)N[C@@H](CCc3ccc(C(F)(F)F)c(OC)c3)C(=O)N2C1 [PP1245, (2S,8S,12R,14S,20S,23S,27S,30S,36S,38Z)-20-cyclopentyl-12-ethoxy-27-isobutyl-8-[2-[3-methoxy-4-(trifluoromethyl)phenyl]ethyl]-N,N,4,19,22,26,32,35-octamethyl-30-[(1S)-1-methylpropyl]-3,6,9,15,18,21,25,28,31,34,42-undecaoxo-2-[[4-(trifluoromethyl)phenyl]methyl]spiro[1,4,7,10,16,19,22,26,29,32,35-undecazatricyclo[34.5.1.0^10,14]dotetracont-38-ene-17,1′-cyclobutane]-23-carboxamide] |  | 0.06 nM | 3.7 nM | B (a compound having 3 or more and less than 10 is denoted as B) | A (a compound having 10 or more and less than 20 is denoted as A) |  |
| CCCC[C@H]1C(=O)N[C@@H]([C@@H](C)CC)C(=O)N(C)CC(=O)N(C)[C@H]2C/C=C\CCN(C2=O)[C@@H](Cc2ccc(C(F)(F)F)cc2)C(=O)N(C)CC(=O)N[C@@H](CCc2cc(F)c(C(F)(F)F)c(F)c2)C(=O)N2C[C@H](OCC)C[C@H]2C(=O)NC2(CCCC2)C(=O)N(C)[C@@H](C2CCCC2)C(=O)N(C)[C@H](C(=O)N(C)C)CC(=O)N1C [PP1397, (2S,8S,12R,14S,20S,23S,27S,30S,36S,38Z)-27-butyl-20-cyclopentyl-8-[2-[3,5-difluoro-4-(trifluoromethyl)phenyl]ethyl]-12-ethoxy-N,N,4,19,22,26,32,35-octamethyl-30-[(1S)-1-methylpropyl]-3,6,9,15,18,21,25,28,31,34,42-undecaoxo-2-[[4-(trifluoromethyl)phenyl]methyl]spiro[1,4,7,10,16,19,22,26,29,32,35-undecazatricyclo[34.5.1.0^10,14]dotetracont-38-ene-17,1′-cyclopentane]-23-carboxamide] |  | 0.073 nM | 3.7 nM | A (a compound having 10 or more and less than 20 is denoted as A) | A (a compound having 10 or more and less than 20 is denoted as A) |  |
| CCOC[C@H]1C(=O)N[C@@H]([C@@H](C)CC)C(=O)N(C)CC(=O)N(C)[C@H]2C/C=C\CCN(C2=O)[C@@H](Cc2ccc(C(F)(F)F)cc2)C(=O)N(C)CC(=O)N[C@@H](CCc2ccc(C(F)(F)F)c(OC)c2)C(=O)N2C[C@@H](C)C[C@H]2C(=O)N(C)C2(CCC2)C(=O)N(C)[C@@H](C2CCCC2)C(=O)N(C)[C@H](C(=O)N(C)C)CC(=O)N1C [PP2359] |  |  | 7.6 nM |  |  | Kd ([2]; SPR, Single Cycle Kinetics): 0.02 nM; HRAS/KRAS (ratio of KD value for HRAS to KD value for KRAS) [4]: B (a compound having 3 or more and less than 10 is denoted as B); NRAS/KRAS (ratio of KD value for NRAS to KD value for KRAS) [5]: A (a compound having 10 or more and less than 20 is denoted as A) |
| CC[C@H](C)[C@@H]1NC(=O)[C@H](COC)N(C)C(=O)C[C@@H](C(=O)N(C)C)N(C)C(=O)[C@H](C2CCCCC2)N(C)C(=O)C2(CC(C)(C)C2)NC(=O)[C@@H]2C[C@@H](OC3CCCC3)CN2C(=O)[C@H](CCc2cc(F)c(C(F)(F)F)c(F)c2)NC(=O)CN(C)C(=O)[C@H](Cc2ccc(C(F)(F)F)cc2)N2CC/C=C\C[C@@H](C2=O)N(C)C(=O)CN(C)C1=O [PP2656] |  |  | 22.5 nM |  |  | Kd [2, 7]: 0.31 nM; HRAS/KRAS (ratio of KD value with respect to GDP-bound HRAS wild-type protein to KD value with respect to KRAS) ([4]; SPR KD ratio HRAS/KRAS, class symbols): B (a compound having 3 or more and less than 10 is denoted as B); NRAS/KRAS (ratio of KD value with respect to GDP-bound NRAS wild-type protein to KD value with respect to KRAS) ([5]; SPR KD ratio NRAS/KRAS, class symbols): A (a compound having 10 or more and less than 20 is denoted as A) |
| CC[C@H](C)[C@@H]1NC(=O)[C@H](CC)N(C)C(=O)C[C@@H](C(=O)N2CCOCC2)N(C)C(=O)[C@H](C2CCCC2)N(C)C(=O)C2(CCC2)NC(=O)[C@@H]2CCCN2C(=O)[C@H](CCc2ccc(C(F)(F)F)c(Cl)c2)NC(=O)CN(C)C(=O)[C@H](Cc2ccc(C(F)(F)F)cc2)N2C[C@H](C)CC[C@@H](C2=O)N(C)C(=O)CN(C)C1=O [PP1338] |  | 0.14 nM | 35 nM | B (a compound having 3 or more and less than 10 is denoted as B) | B (a compound having 3 or more and less than 10 is denoted as B) |  |
